According to patent US10154667B2, “Broadleaf crop control with 6-arylpicoline carboxylic acids, 2-arylpyrimidine carboxylic acids, or salts or esters thereof” (Dow AgroSciences LLC, priority 2013, dated 2018):
Read-outs that look alike come from different tables or passages of the source.

Experiments:
Format in all cases: in vivo, Glycine max
[1] = test system: RoundUp Ready GLXMA (HT variety soybean); test: Greenhouse evaluation of broadleaf volunteer crop control, RoundUp ready soybean; settings: for pest or weed control at 1.1 g/ha / pest or weed control at 2.2 g/ha / pest or weed control at 4.4 g/ha / pest or weed control at 8.75 g/ha / pest or weed control at 17.5 g/ha: Glycine max, 504 h, read-out: Average Percent Crop Control after Treatment, RoundUp Ready GLXMA
Method: (§1) Test plants were grown in METRO-MIX® 360 (SunGro Horticulture, Bellevue, Wash.) in 132.7 square centimeters (cm^2) plastic pots for 7-21 days in a greenhouse with an approximate 15 hour (h) photoperiod which was maintained at about 23-29° C. during the day and 22-28° C. during the night. Plants were grown to the 2 to 3 leaf stage prior to applications. Both conventional soybean crops varieties, Maverick and Resnick, and herbicide resistant (HT) varieties AAD12, AAD1, and ROUNDUP® ready soybean crops were treated.
(§2) A weighed amount, determined by the highest rate to be tested, of each test compound was placed in a 25 milliliter (mL) glass vial and was dissolved in 4 mL of a 97:3 v/v (volume/volume) mixture of acetone and dimethyl sulfoxide (DMSO), which will be referred to as General Purpose Solvent (GPS), to obtain concentrated stock solutions. […] The concentrated stock solutions obtained were diluted with 20 mL of an aqueous mixture containing water, GPS, isopropyl alcohol, ATPLUS® 411F crop oil concentrate, and TRITON® X-155 surfactant in a 46:42:12:1.0:0.02 v/v ratio to obtain spray solutions containing the highest application rates. Additional application rates were obtained by serial dilution of 12 mL of the high rate solution into a solution containing 2 mL of 97:3 v/v (volume/volume) mixture of acetone and dimethyl sulfoxide (DMSO) and 10 mL of an aqueous mixture containing water, GPS, isopropyl alcohol, ATPLUS® 411F crop oil concentrate, and TRITON® X-155 surfactant in a 46:42:12:1.0:0.02 v/v ratio to obtain 1/2X, 1/4X, 1/8X and 1/16X rates of the high rate (X). Compound requirements are based upon a 12 mL application volume at a rate of 187 L/ha. Formulated compounds were applied to the plant material with an overhead Mandel track sprayer equipped with 8002E nozzles calibrated to deliver 187 L/ha over an application area of 0.503 square meters (m^2) at a spray height of 18 inches (43 cm) above the average plant canopy height. Control plants were sprayed in the same manner with the solvent blank. The treated plants and control plants were placed in a greenhouse as described above and watered by sub-irrigation to prevent wash-off of the test compounds. After 21 days, the condition of the test plants as compared with that of the control plants was determined visually and scored on a scale of 0 to 100 percent where 0 corresponds to no injury and 100 corresponds to complete kill, and results are listed in Table 1 along with active ingredients and their respective formulations. Each score in Table 1 represents an average obtained from results of three representative experiments.
(§3) Additional formulations with different 6-arylpicolinates were tested in the greenhouse on Maverick and RoundUp-ready soybean crops using the procedure described above. Each score in Table 2 represents an average obtained from results of three representative experiments.

[2] = test system: Maverick GLXMA (conventional soybean); test: Greenhouse evaluation of broadleaf volunteer crop control, Maverick soybean; settings: for pest or weed control at 1.1 g/ha / pest or weed control at 2.2 g/ha / pest or weed control at 4.4 g/ha / pest or weed control at 8.75 g/ha / pest or weed control at 17.5 g/ha: Glycine max, 504 h, read-out: Average Percent Crop Control after Treatment, Maverick GLXMA
Method: as §1, §2, §3

[3] = test system: ROUNDUP READY soybeans (GLXMA); test: Field evaluation with various herbicides, 46 days after treatment; settings: for % Crop Control: 46 Days After Treatment
From the text: (§4) The average percent visual control of ROUNDUP READY® soybeans (GLXMA) 46 days after treatment with various herbicides with standard formulation in comparison with compound of Formula (IV) at specified rates are provided in Table 6 below. The data was the result of conducting factorial replicated field trials (4 trials) by applying the compositions at a spray pressure of 300 kPa and a spray volume of 200 L/ha. The treated plots and control plots were visually rated blind at the specified dates after application. Ratings were based on a scale of 0-100%, as discussed above, wherein 0% indicates complete growth of the undesired vegetation and 100% indicates complete prevention/eradication of the undesired vegetation.

[4] = test system: ROUNDUP READY soybeans (GLXMA); test: Field evaluation with various herbicides, 30 days after treatment; settings: for % Crop Control: 30 Days After Treatment
From the text: as §4, with “The” for “The average percent visual control of ROUNDUP READY® soybeans (GLXMA) 46 days after treatment with various herbicides with standard formulation in comparison with compound of Formula (IV) at specified rates are provided in Table 6 below. The”, “(3” for “(4”

[5] = 1.1 g ae/ha, greenhouse, 2 to 3 leaf stage, after 21 days, 0 no injury, 100 complete kill
[6] = 2.2 g ae/ha, greenhouse, 2 to 3 leaf stage, after 21 days, 0 no injury, 100 complete kill
[7] = 4.4 g ae/ha, greenhouse, 2 to 3 leaf stage, after 21 days, 0 no injury, 100 complete kill
[8] = 8.75 g ae/ha, greenhouse, 2 to 3 leaf stage, after 21 days, 0 no injury, 100 complete kill
[9] = 17.5 g ae/ha, greenhouse, 2 to 3 leaf stage, after 21 days, 0 no injury, 100 complete kill

Row | Compound | pest or weed control at 1.1 g/ha [1, 5] [%] | pest or weed control at 2.2 g/ha [1, 6] [%] | pest or weed control at 4.4 g/ha [1, 7] [%] | pest or weed control at 8.75 g/ha [1, 8] [%] | pest or weed control at 17.5 g/ha [1, 9] [%] | pest or weed control at 1.1 g/ha [2, 5] [%] | pest or weed control at 2.2 g/ha [2, 6] [%] | pest or weed control at 4.4 g/ha [2, 7] [%] | pest or weed control at 8.75 g/ha [2, 8] [%] | pest or weed control at 17.5 g/ha [2, 9] [%] | also measured
1 | Nc1c(F)c(-c2ccc3c(c2)OCO3)nc(C(=O)O)c1Cl | 32 | 45 | 73 | 92 | 98 | 27 | 42 | 58 | 95 | 100 | 
2 | Nc1cc(-c2ccc(Cl)cc2F)nc(C(=O)O)c1Cl | 100 | 100 | 100 | 100 | 100 | 100 | 100 | 100 | 100 | 100 | 
3 | COc1cc(OC)n2nc(NS(=O)(=O)c3c(C(F)(F)F)ccnc3OC)nc2n1 [Pyroxsulam] |  |  |  |  |  |  |  |  |  |  | % Crop Control ([3]; 18 g ai/Ha): 98.3%
4 | O=C(O)c1nc(Cl)ccc1Cl [Clopyralid] |  |  |  |  |  |  |  |  |  |  | % Crop Control ([3]; 54 g ai/Ha): 93.8%
5 | CC(O)CN(CC(C)O)CC(C)O.Nc1cc(Cl)nc(C(=O)O)c1Cl (stereo not shown) [Aminopyralid TIPA] |  |  |  |  |  |  |  |  |  |  | % Crop Control ([4]; 1.25 g ai/Ha): 60%
6 | COc1cnc(OC)n2nc(NS(=O)(=O)c3c(OCC(F)F)cccc3C(F)(F)F)nc12 [Penoxsulam] |  |  |  |  |  |  |  |  |  |  | % Crop Control ([4]; 18 g ai/Ha): 87.3%
7 | COc1nc(C)nc(NC(=O)NS(=O)(=O)c2cc(I)ccc2C(=O)O)n1 [Iodosulfuron] |  |  |  |  |  |  |  |  |  |  | % Crop Control ([3]; 3.5 g ai/Ha): 90%
8 | COC(=O)c1nc(-c2ccc(Cl)cc2OC)cc(N)c1Cl | 95 | 99 | 100 | 100 | 100 | 98 | 100 | 100 | 100 | 100 | 
9 | COc1c(Cl)ccc(-c2cc(N)c(Cl)c(C(=O)O)n2)c1F [Formula (IV)] |  |  |  |  |  |  |  |  |  |  | % Crop Control ([3]; 17 g ai/Ha): 93%; herbicidal activity in genetically engineered crops as compared to other commercially known herbicides ([3]; RoundUp Ready soybeans): comparable or superior
10 | CCNc1nc(Cl)nc(NC(C)C)n1 [Atrazine] |  |  |  |  |  |  |  |  |  |  | % Crop Control ([4]; 1500 g ai/Ha + 1% J'Oil): 86.7%; % Crop Control ([4]; 1500 g ai/Ha): 75%
11 | COc1c(Cl)ccc(-c2cc(N)c(Cl)c(C(=O)O)n2)c1F [drawing 15] | 100 | 100 | 100 | 100 | 100 | 100 | 100 | 100 | 100 | 100 | 
12 | Cc1c(Cl)ccc(-c2cc(N)c(Cl)c(C(=O)O)n2)c1F | 57 | 80 | 98 | 100 | 100 | 53 | 82 | 99 | 100 | 100 | 
13 | COc1c(Cl)ccc(-c2nc(C(=O)O)c(Cl)c(N)c2F)c1F [Formula (III)] |  |  |  |  |  |  |  |  |  |  | % Crop Control ([4]; 18 g ai/Ha): 100%; herbicidal activity in genetically engineered crops as compared to other commercially known herbicides ([4]; RoundUp Ready soybeans): comparable or superior
14 | Nc1c(Cl)c(F)nc(OCC(=O)O)c1Cl [Fluroxypyr] |  |  |  |  |  |  |  |  |  |  | % Crop Control ([3]; 200 g ai/Ha): 100%
15 | COc1c(Cl)ccc(-c2nc(C(=O)O)c(Cl)c(N)c2F)c1F [drawing 13] | 100 |  |  |  |  |  |  |  |  |  | Average Percent Crop Control after Treatment, RoundUp Ready GLXMA [1, 6]: 100%; Average Percent Crop Control after Treatment, RoundUp Ready GLXMA [1, 7]: 100%; Average Percent Crop Control after Treatment, RoundUp Ready GLXMA [1, 8]: 100%; Average Percent Crop Control after Treatment, RoundUp Ready GLXMA [1, 9]: 100%; Average Percent Crop Control after Treatment, Maverick GLXMA [2, 5]: 100%; Average Percent Crop Control after Treatment, Maverick GLXMA [2, 6]: 100%; Average Percent Crop Control after Treatment, Maverick GLXMA [2, 7]: 100%; Average Percent Crop Control after Treatment, Maverick GLXMA [2, 8]: 100%; Average Percent Crop Control after Treatment, Maverick GLXMA [2, 9]: 100%
16 | Cc1ccc(-c2cc(N)c(Cl)c(C(=O)O)n2)cc1 | 90 | 100 | 100 | 100 | 100 | 100 | 100 | 100 | 100 | 100 | 
17 | COc1c(Cl)ccc(-c2nc(C(=O)OCc3ccccc3)c(Cl)c(N)c2F)c1F |  |  |  |  |  |  |  |  |  |  | pest or weed control at 1.1 g/ha [1]: 100%; pest or weed control at 2.2 g/ha [1]: 100%; pest or weed control at 4.4 g/ha [1]: 100%; pest or weed control at 8.75 g/ha [1]: 100%; pest or weed control at 17.5 g/ha [1]: 100%; pest or weed control at 1.1 g/ha [2]: 100%; pest or weed control at 2.2 g/ha [2]: 100%; pest or weed control at 4.4 g/ha [2]: 100%; pest or weed control at 8.75 g/ha [2]: 100%; pest or weed control at 17.5 g/ha [2]: 100%
18 | CCOc1cc(Oc2ccc(C(F)(F)F)cc2Cl)ccc1[N+](=O)[O-] [Oxyfluorfen] |  |  |  |  |  |  |  |  |  |  | % Crop Control ([4]; 72 g ai/Ha): 16.7%
19 | COc1ncc(F)c2nc(S(=O)(=O)Nc3c(F)cccc3F)nn12 [florasulam] |  |  |  |  |  |  |  |  |  |  | % Crop Control ([4]; 5 g ai/Ha + 1% J'Oil): 63.3%
